Experimental findings from PubChem BioAssay (NCI) are described below.

Some test systems named below: HOP-92 NSCLC; RXF 393 renal; HL-60(TB) leukemia; OVCAR-4 ovarian; SK-OV-3 ovarian; SK-MEL-5 melanoma; SF-268 CNS; NCI-H226 lung; PC-3 prostate; MDA-MB-231 breast.
Holding throughout (assay): NCI tumour cell line growth inhibition, 48 h

“And” between values parts separate entries of the source, which are not always exact repeats. Equal entries are not always repeated.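 Protocol summary: plate cells (96-well), add compound at 5 concentrations, incubate 48 h, interpolate endpoints linearly. GI50 = concentration required for 50% inhibition of growth. TGI marks complete inhibition of growth.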 Bounds are passed on as bounds.

For `N#C/C(=C1\OC(=N)C(c2ccc(Cl)cc2Cl)C1=O)c1ccc(Cl)cc1Cl` (centres undefined), the TGI with HOP-92 NSCLC, with RXF 393 renal, in the test with HL-60(TB) leukemia, in the test on OVCAR-4 ovarian, in the test on SK-OV-3 ovarian and with SK-MEL-5 melanoma was greater than 100 µM throughout. Besides, the TGI in the test on SF-268 CNS and with NCI-H226 lung was greater than 100 µM each time.
`O=C(CO)C1CC2C=CC1C2` (centres undefined): the TGI in the test on HOP-92 NSCLC, in the test with RXF 393 renal, with HL-60(TB) leukemia, in the test on OVCAR-4 ovarian, in the test with SK-OV-3 ovarian and with SK-MEL-5 melanoma was greater than 100 µM in each case. This molecule also gave a TGI in the test with SF-268 CNS greater than 100 µM.
In the case of `COc1c(OC(C)C)cc2cc(O)c(C(=O)NC3Cc4ccc(c(Cl)n4)O[C@@H]4C=C5C#C/C(=C\C#CC6OC56C4OC4CC(C)(O)C(O)C(C)O4)C(OC4CC(O)C(N(C)C)C(C)O4)COC3=O)cc2c1OC` (some centres undefined), the TGI in the test on PC-3 prostate was greater than 36.3 µM; with HOP-92 NSCLC, > 36.3 µM and 2.94 µg/mL; in the test with RXF 393 renal it was > 36.3 µM and 1.92 µg/mL; in the test with HL-60(TB) leukemia it was > 36.3 µM and 0.336 µg/mL; with OVCAR-4 ovarian it was > 36.3 µM and 37.5 µg/mL; in the test on SK-OV-3 ovarian it was 37.5 µg/mL. For the same molecule, the TGI with SK-MEL-5 melanoma was > 36.3 µM and 10.1 µg/mL; in the test with SF-268 CNS, > 36.3 µM and 17.3 µg/mL; in the test with NCI-H226 lung, > 36.3 µM and 37.5 µg/mL. The GI50 in the test with HOP-92 NSCLC is 0.482 µg/mL; with RXF 393 renal, 0.568 µg/mL; with HL-60(TB) leukemia, 27.5 µM and 0.019 µg/mL; with OVCAR-4 ovarian it was > 36.3 µM and 30.8 µg/mL; in the test on SK-OV-3 ovarian, 2.75 µg/mL; in the test on SK-MEL-5 melanoma it was > 36.3 µM and 0.546 µg/mL. The GI50 in the test with SF-268 CNS is 11.5 µM and 0.838 µg/mL; with NCI-H226 lung, 2.8 µg/mL.
Consider `COc1ccc2nc3cc(Cl)ccc3c(N3CCN(c4ccnc(N5CCN(C)CC5)n4)CC3)c2c1`, for which the GI50 with PC-3 prostate is 1.92 µM; in the test on HOP-92 NSCLC, 1.59 µM; with RXF 393 renal, 1.36 µM; in the test with HL-60(TB) leukemia, 2.14 µM; in the test on OVCAR-4 ovarian it was 1.61 µM; in the test with SK-OV-3 ovarian, 12.9 µM. For the same molecule, the results for the GI50 with SK-MEL-5 melanoma, in the test with SF-268 CNS and in the test on NCI-H226 lung were 11.3 µM, 1.99 µM and 49.6 µM, respectively. Besides, the TGI stood at 3.87 µM in the test with PC-3 prostate; 3.36 µM in the test on HOP-92 NSCLC; 2.78 µM with RXF 393 renal; 5.03 µM in the test on HL-60(TB) leukemia; 3.02 µM with OVCAR-4 ovarian; 26.2 µM with SK-OV-3 ovarian. The TGI in the test on SK-MEL-5 melanoma is 28 µM; in the test on SF-268 CNS it was 3.89 µM; with NCI-H226 lung, greater than 100 µM.
With `CC(=O)CC(=O)CCC(=O)Nc1cccc(C(F)(F)F)c1`, the TGI in the test on HOP-92 NSCLC, in the test with HL-60(TB) leukemia, with OVCAR-4 ovarian, with SK-OV-3 ovarian, in the test on SK-MEL-5 melanoma and with SF-268 CNS was greater than 100 µM throughout. The TGI in the test with NCI-H226 lung was greater than 100 µM.
`CC(=O)[CH-]C(C)=O.CC(=O)[CH-]C(C)=O.CC(=O)[CH-]C(C)=O.[Ga+3]`: the GI50 in the test on RXF 393 renal, in the test with OVCAR-4 ovarian, in the test on SK-MEL-5 melanoma, with SF-268 CNS and with NCI-H226 lung was greater than 100 µM throughout. Also, the TGI in the test on RXF 393 renal, in the test on OVCAR-4 ovarian, with SK-MEL-5 melanoma, in the test with SF-268 CNS and with NCI-H226 lung was greater than 100 µM throughout.
Consider `O=S(=O)(NCCCNc1nccc(-c2c(-c3ccc(F)cc3)nc3sccn23)n1)c1ccc(F)cc1`, for which the GI50 with PC-3 prostate is 9.54 µM; in the test with RXF 393 renal it was 3.67 µM; with MDA-MB-231 breast, 14.2 µM; with HL-60(TB) leukemia it was 8.38 µM; in the test on OVCAR-4 ovarian, 3.53 µM; with SK-OV-3 ovarian it was 17.1 µM. The GI50 was 4.63 µM in the test with SK-MEL-5 melanoma, 20 µM in the test on SF-268 CNS and 4.76 µM in the test with NCI-H226 lung. Moreover, the TGI in the test with PC-3 prostate was greater than 100 µM; with RXF 393 renal, 70.8 µM; with MDA-MB-231 breast it was greater than 100 µM; in the test on HL-60(TB) leukemia, greater than 100 µM; with OVCAR-4 ovarian it was 26.7 µM; in the test with SK-OV-3 ovarian, greater than 100 µM. Also, the TGI in the test on SK-MEL-5 melanoma is 57.9 µM; in the test with SF-268 CNS, greater than 100 µM; with NCI-H226 lung, 77.5 µM.
Regarding `CC(C)OC(=O)C1Cc2c([nH]c3ccccc23)C(c2ccccc2)N1` (centres undefined), the TGI with HOP-92 NSCLC was greater than 100 µM; with RXF 393 renal, 98.3 µM; with HL-60(TB) leukemia, greater than 100 µM; with OVCAR-4 ovarian it was greater than 100 µM; with SK-OV-3 ovarian, greater than 100 µM; in the test with SK-MEL-5 melanoma, greater than 100 µM. In addition, the TGI in the test on SF-268 CNS and in the test on NCI-H226 lung was greater than 100 µM in each case.
In the case of `Cc1ccc(C2=Nc3ccccc3SC(c3cccc4c3OCO4)C2)cc1` (centres undefined), the TGI with HL-60(TB) leukemia was 39 µM; in the test with OVCAR-4 ovarian it was 33.7 µM; with SK-OV-3 ovarian, 76.3 µM; in the test with SK-MEL-5 melanoma, 31.1 µM; with SF-268 CNS, 45.6 µM; with NCI-H226 lung it was 37 µM.
Regarding `O=C(c1c(O)cc(O)cc1O)C1Cc2ccccc21` (centres undefined), the TGI with HOP-92 NSCLC, in the test with RXF 393 renal, in the test with HL-60(TB) leukemia, in the test on OVCAR-4 ovarian, in the test on SK-OV-3 ovarian and in the test with SK-MEL-5 melanoma was greater than 100 µM throughout. For the same molecule, the TGI in the test on SF-268 CNS and in the test on NCI-H226 lung was greater than 100 µM throughout.
For the molecule `CC(=O)OCC(CC[CH2][Sn]([Cl])([Cl])[c]1ccccc1)OC(C)=O` (centres undefined), the GI50 in the test on HOP-92 NSCLC is 17.1 µM; in the test with RXF 393 renal, 18.5 µM; in the test on HL-60(TB) leukemia, 16.8 µM; with OVCAR-4 ovarian, 16.4 µM; in the test with SK-OV-3 ovarian, 21.1 µM; with SK-MEL-5 melanoma it was 21.5 µM. Further, the figures for the GI50 with SF-268 CNS and with NCI-H226 lung were 18.6 µM and 30.7 µM, respectively. The TGI in the test on HOP-92 NSCLC came out at 33.4 µM; with RXF 393 renal it was 34.2 µM; with HL-60(TB) leukemia, 42.6 µM; in the test on OVCAR-4 ovarian it was 31.4 µM; with SK-OV-3 ovarian, 44.2 µM; in the test on SK-MEL-5 melanoma, 55.5 µM. In addition, the TGI is 33.9 µM in the test with SF-268 CNS and greater than 100 µM with NCI-H226 lung.
For `C[P+]1(c2ccccc2)CCCCC1`, the TGI in the test with RXF 393 renal, in the test with OVCAR-4 ovarian, in the test on SK-OV-3 ovarian, in the test with SK-MEL-5 melanoma and with SF-268 CNS was greater than 100 µM throughout.
Turning to `O=[N+]([O-])/C=C/c1ccc(Cl)cc1Cl`, the TGI in the test on HOP-92 NSCLC was found to be 31 µM; in the test with HL-60(TB) leukemia it was 25.3 µM; in the test with OVCAR-4 ovarian, 34.8 µM; in the test on SK-MEL-5 melanoma, 29.4 µM; with SF-268 CNS, 44.5 µM; in the test on NCI-H226 lung, 32.2 µM.
